Legend:
[1] = test system: Salmonella thyphimurium; test: Growth of Salmonella thyphimurium in PRP or PC fractions; assay type: cell-based; conditions: compared with air (FIG. 7)
Description: (§1) PC fractions were identically prepared from CO pretreated or untreated blood by consecutive centrifugation in a sterile environment using blood bank conditions. Bicarbonate (4% of PC volume) is than added from a stock solution of 750 mM while agitation to yield a final bicarbonate concentration of 30 mM. Next, the PC is treated with CO in a similar manner to whole blood. Alternatively, rather than applying a vacuum, the containers were flushed for 10 min. with sterile CO while agitating the containers, which were then sealed. The containers were allowed to stay at room temperature of 20-24° C.PRP platelets were treated similarly.
(§2) Control blood samples were packed under air in the same containers without any additional treatment allowing air transfer. In some experiments control of inert gas like nitrogen were used to exchange the air in the same manner as CO.
Whole blood or its factions were inoculated with pathogenic bacteria. Growth of the bacteria at room temperature was followed under different atmospheres (gas environments ). The blood fractions were platelets in plasma (PRP); concentrated platelets (PC) as currently stored in blood banks after removal of about three quarters of the plasma and the cell-free blood plasma. […]

[2] = test system: platelets; test: Platelet viability: leakage of LDH from stored platelets; assay type: cell-based, human
Description: as §1
The viability of the platelets under storage was tested in the form of PC because platelets are currently stored in this form, in order to be able to store and use the extra plasma in PRP separately. However, the PC environment lacks both red cells and plasma, such that platelets in this environment are more sensitive than in the PRP form to loss of viability. Without wishing to be limited to a single hypothesis, platelets in the form of PC may experience changes in pH, and therefore may lose the necessary pH neutrality of the environment. The viability of platelets stored as PC was investigated according to two parameters: drop of pH of the environment, and loss of membrane integrity of the cells themselves, leading to leakage of cellular proteins.
With regard to leakage of LDH, cell viability can also be evaluated according to membrane integrity. LDH (lactic dehydrogenase) is a stable enzyme which is normally active inside cells; when these cells have loss of membrane integrity, LDH is leaked outside the cells, such that higher levels of LDH activity are correlated with reduced platelet viability. The presence of LDH activity in platelet-free solution samples was measured in order to assess the viability of the platelet-containing fractions from which the samples were taken. […]

[3] = test system: platelets; test: Ability of stored platelets to aggregate upon activation by collagen (Plateletworks kit); assay type: cell-based, human
Description: An assessment of the potential of platelets to form aggregates upon activation by an agonist, preferably collagen, a typical physiological agonist, was performed, to determine the potential effect of carbon monoxide on this physiological function of platelets. The assay was performed as follows.
Fresh blood bank platelets, prepared as platelet concentrates (PC), were used. Each PC unit was divided. One part was stored without carbon monoxide treatment, which is the current method of preserving PC in blood banks. The other portion was sealed under carbon monoxide as previously described. Samples were preserved under sterile conditions at 20-23° C., while shaking gently. The ability of platelets to aggregate upon activation by collagen as an agonist was tested daily using a kit by Helena Laboratories (USA), called the Plateletworks kit. To allow platelet count and reduce anticoagulant activity, the PC was diluted 1:10 with the physiological buffer PBS pH 7.3. The whole individual platelets present were counted prior and after addition of the agonist, for this example collagen.
Therefore, the stored PC samples (control and stored under carbon monoxide) were tested for their ability to aggregate following two hours shaking under air after being removed from storage.

[4] = test system: Salmonella thyphimurium; test: Growth of Salmonella thyphimurium in cells-free plasma; assay type: cell-based; conditions: plasma alone as source of nutrition (FIG. 8)
Description: Whole blood or its factions were inoculated with pathogenic bacteria. Growth of the bacteria at room temperature was followed under different atmospheres (gas environments ). The blood fractions were platelets in plasma (PRP); concentrated platelets (PC) as currently stored in blood banks after removal of about three quarters of the plasma and the cell-free blood plasma.
FIG. 8 compares the growth of Salmonella thyphimurium in cells-free plasma under AIR, N2 and CO.

[5] = test system: Staphilococcus aereus; test: Growth of inoculated Staphilococcus aereus in platelets stored as PRP; assay type: cell-based; conditions: 20-24° C., inoculated at 18 CFU/ml, compared with air (FIG. 6)
Description: as §1, with “Next, the PC is treated with CO in a similar manner to whole blood.” left out
(§3) Control blood samples were packed under air in the same containers without any additional treatment allowing air transfer. In some experiments control of inert gas like nitrogen were used to exchange the air in the same manner as CO. […]
(§4) For FIGS. 2-6, platelets were stored as PRP with agitation at room temperature (20-24° C.) in a blood bank rocking plane as for regular blood bank under air with gas exchange option (AIR); or sealed under nitrogen atmosphere (N2) or carbon monoxide atmosphere (CO). […] The amount of inoculated bacteria was adjusted to a range of 10-100 CFU/ml before inoculation, in which the exact final number of bacteria was been measured by plating the stock on suitable agar plates allowing growth and counting (the final initial counts are given in each case).

[6] = test system: Bacilus cereus; test: Growth of inoculated Bacilus cereus in platelets stored as PRP; assay type: cell-based; conditions: 20-24° C., inoculated at 18 CFU/ml, compared with air (FIG. 2)
Description: as §1, with “Next, the PC is treated with CO in a similar manner to whole blood.” left out
as §3, §4

[7] = test system: human body; conditions: cited from earlier work
[8] = test system: E. coli (strain O 157); test: Growth of inoculated E. coli in platelets stored as PRP; assay type: cell-based; conditions: 20-24° C., inoculated at 25 CFU/ml, compared with air (FIG. 3)
Description: as §1, with “Next, the PC is treated with CO in a similar manner to whole blood.” left out
as §3, §4

[9] = test system: platelets; conditions: via binding to Guanylate Cyclase; Brune and Ullrich 1987; cited from earlier work
[10] = test system: Yersinia Enterocolitica; test: Growth of inoculated Yersinia Enterocolitica in whole blood under different atmospheres; assay type: cell-based; conditions: room temperature, about 20 bacteria per ml inoculated, compared with air (FIG. 1)
Description: Freshly drawn whole blood was obtained from a human donor under sterile conditions, and stored in gas impermeable bags having a volume of at least 1.5 times that of the blood volume. The gas environment (or atmosphere) in the bag was then replaced by an atmosphere containing sterile CO by applying a low level vacuum with a water pump of 20 mm Hg. CO was immediately flushed through a 0.25 micron sterile filter. The bag was sealed and agitated for 15 minutes to allow equilibration. This procedure was repeated three times thereby exchanging the atmosphere in the bag and blood with CO. Saturation with carbon monoxide can be identified in hemoglobin in samples of the treated blood according to typical changes of the light absorption spectrum of the hemoglobin in the visible region by a shift from 577 nm (typical of oxy-hemoglobin) to 569 nm (typical of carbomonoxy-hemoglobin).
as §2
Whole blood or its factions were inoculated with pathogenic bacteria. Growth of the bacteria at room temperature was followed under different atmospheres (gas environments ). […]

[11] = test system: Bulkholderia cepasea; test: Growth of inoculated Bulkholderia cepasea in platelets stored as PRP; assay type: cell-based; conditions: 20-24° C., inoculated at 12 CFU/ml, compared with air (FIG. 5)
Description: as §1, with “Next, the PC is treated with CO in a similar manner to whole blood.” left out
as §3, §4

[12] = test system: Pseudomonas aeraginosa; test: Growth of inoculated Pseudomonas aeraginosa in platelets stored as PRP; assay type: cell-based; conditions: 20-24° C., inoculated at 16 CFU/ml, compared with air (FIG. 4)
Description: as §1, with “Next, the PC is treated with CO in a similar manner to whole blood.” left out
as §3, §4

[13] = test system: platelets; conditions: autologous transfusions performed in primates; cited from earlier work
[14] = test system: bacteria; conditions: upon photoactivation; Gambro BCT abstracts 2001; cited from earlier work

| SMILES | growth of Salmonella thyphimurium in PC ([1]; PC, count at time zero 32 CFU/ml) | growth of Salmonella thyphimurium in PRP ([1]; PRP, count at time zero 16 CFU/ml) | LDH activity in the supernatant, a measure of leakage ([2]; PC, air vs CO vs CO with sodium bicarbonate (FIG. 10)) | viability of platelets in PC (LDH leakage) ([2]; PC, no additional bicarbonate, compared with air (FIG. 10)) | leakage of LDH (LDH activity in supernatant), platelets stored as PRP ([2]; PRP, compared with air, data not shown) | ability to aggregate in response to collagen ([3]; PC stored under carbon monoxide, carbon monoxide replaced by air) | formation of aggregates upon exposure to collagen ([3]; PC stored under carbon monoxide, tested immediately after being exposed to air) | fraction of platelets able to form aggregates ([3]; PC, day 11, two hours shaking under air after storage, compared with same PC unit stored under air (FIGS. 11A-11C)) | growth of Salmonella thyphimurium in cells-free plasma [4] | growth of Staphilococcus aereus in PRP [5] | growth of Bacilus cereus in PRP [6] | safety threshold or TLV, equivalent inhalation ([7]; equivalent of 8 hours per day at 20 ppm) | safety threshold or TLV for the human body ([7]; inhalation of 8 hours per day of air containing the gas) | growth of E. coli (strain O 157) in PRP [8] | aggregation of platelets [9] | growth of inoculated Yersinia Enterocolitica in whole blood [10] | growth of Bulkholderia cepasea in PRP [11] | growth of Pseudomonas aeraginosa in PRP [12] | platelet survival rates [13] | effectiveness for bacterial inactivation [14] |
| --- | --- | --- | --- | --- | --- | --- | --- | --- | --- | --- | --- | --- | --- | --- | --- | --- | --- | --- | --- | --- |
| [C-]#[O+] [carbon monoxide] | inhibited | significantly inhibited | similar, high levels | lost much faster than stored in air | equal or even somewhat lower than under air | regained their ability to aggregate | did not form aggregates | larger fraction | inhibition of pathogen growth was maintained | significantly inhibited | significantly inhibited | 10^4 ppm/minute | 20 ppm | significantly inhibited | can inhibit aggregation | completely inhibited | eliminated | significantly inhibited | – | – |
| N#N [nitrogen, reference compound] | – | – | – | – | – | – | – | – | – | little or no effect | little or no effect | – | – | little or no effect | – | completely inhibited | little or no effect | little or no effect | – | – |
| Cc1cc2nc3c(=O)[nH]c(=O)nc-3n(C[C@H](O)[C@H](O)[C@H](O)CO)c2cc1C [riboflavin] | – | – | – | – | – | – | – | – | – | – | – | – | – | – | – | – | – | – | may even decrease platelet survival rates | variable effectiveness |

From patent publication US20040109903A1, “Method for extended storage of viable and pathogen-safe blood and blood components using carbon monoxide” (priority 2002, published 2004)
